Measurements as given in patent publication US20240360081A1, “SULFONAMIDE OREXIN RECEPTOR AGONISTS AND USES THEREOF” (Jazz Pharmaceuticals Ireland Limited, priority 2021, published 2024).

Each molecule was assayed against T1, human recombinant OX2 (hOX2) receptor expressed in CHO cells (Homo sapiens, UniProt O43614) (assay: IP-1 accumulation assay (IP-One HTRF) in hOX2-CHO cells). Conditions: 60 min at 37° C., 11 points CRC, response as % of maximal OX-A response.
T1 construct: host or cells: CHO cells (hOX2-CHO)
T1 sequence (O43614 1-444): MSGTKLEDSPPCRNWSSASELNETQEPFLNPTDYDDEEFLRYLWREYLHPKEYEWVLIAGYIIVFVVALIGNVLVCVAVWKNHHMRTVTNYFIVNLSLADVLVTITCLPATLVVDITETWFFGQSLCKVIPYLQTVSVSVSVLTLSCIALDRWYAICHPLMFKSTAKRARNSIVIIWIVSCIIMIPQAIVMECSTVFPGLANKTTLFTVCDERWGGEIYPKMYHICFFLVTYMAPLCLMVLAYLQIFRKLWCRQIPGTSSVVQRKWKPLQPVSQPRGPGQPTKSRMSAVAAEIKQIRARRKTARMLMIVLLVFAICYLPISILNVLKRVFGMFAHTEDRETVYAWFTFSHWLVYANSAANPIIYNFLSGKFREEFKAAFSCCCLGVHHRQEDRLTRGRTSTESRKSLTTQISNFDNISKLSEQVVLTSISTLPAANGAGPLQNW
Format: cell-based
Procedure, shortened: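 CHO cells expressing hOX2, 20,000 cells/well in HBSS with 20 mM HEPES pH 7.4, 50 mM LiCl, 0.1% BSA; 11-point compound series, 0.5% DMSO final, 60 min at 37 °C. IP-1 by HTRF (665/615 ratio) after 60 min at room temperature, as % of maximal OX-A response; EC50 by four-parameter logistic fit, mean of ≥2 experiments in duplicate.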

| Structure (SMILES) | EC50 |
| --- | --- |
| Cc1cc(-n2cccn2)cn(C(CNS(C)(=O)=O)CO[C@H]2CC[C@@H](c3ccccc3)CC2)c1=O (stereo partly drawn) [Example 7a, N-{2-[3-methyl-2-oxo-5-(1H-pyrazol-1-yl)-1,2-dihydropyridin-1-yl]-3-{[(CIS)-4-phenylcyclohexyl]oxy}propyl}methanesulfonamide] | 100 to 1000 nM |
| Cc1cc(C(CNS(C)(=O)=O)CO[C@H]2CC[C@@H](c3cccc(F)c3)CC2)c(=O)n(CC#N)c1 (stereo partly drawn) [Example 5e, N-{2-[1-(cyanomethyl)-5-methyl-2-oxo-1,2-dihydropyridin-3-yl]-3-{[(CIS)-4-(3-fluorophenyl)cyclohexyl]oxy}propyl}methanesulfonamide] | 100 to 1000 nM |
| Cc1cc(C(CNS(C)(=O)=O)CO[C@H]2CC[C@@H](c3ccccc3)CC2)c(=O)n(C)c1 (stereo partly drawn) [Example 5a, N-[2-(1,5-dimethyl-2-oxo-1,2-dihydropyridin-3-yl)-3-{[(CIS)-4-phenylcyclohexyl]oxy}propyl]methanesulfonamide] | 1000 to 10000 nM |
| CS(=O)(=O)NCC(CO[C@H]1CC[C@@H](c2ccccc2)CC1)n1cc(C(F)(F)F)ccc1=O (stereo partly drawn) [Example 2l, N-{2-[2-oxo-5-(trifluoromethyl)-1,2-dihydropyridin-1-yl]-3-{[(CIS)-4-phenylcyclohexyl]oxy}propyl}methanesulfonamide] | > 10000 nM |
